{
  "source": "the supplement of paper PMC10307832",
  "data": [
    {"compound": "CN1CCN(CC1)C2=CC(=C(C=C2)NC3=NC(=C(S3)C(=O)C4=C(C=CC=C4Cl)Cl)N)OC [XMD14-99] + CCNC(=O)c1noc(-c2cc(C(C)C)c(O)cc2O)c1-c1ccc(CN2CCOCC2)cc1 [Luminespib] (partner 0.01 µM)", "test": "relative viability (nuclei count vs DMSO), 5 days (fraction); higher = more cells survive", "conditions": "first compound 0.08 µM", "outline": "(§1)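 After 5 days of treatment, lung cancer cells in 1536-well plates were fixed and stained in a single step (final 0.05% Triton X-100, 1% formaldehyde, 1 ug/ml Hoechst) and their nuclei counted on 4× images. Treatment had been applied by pin tool the day after seeding as one drug alone or as a fixed anchor-drug dose with five library-drug doses (not always all listed) in √10 steps. Relative viability is the nuclei count of treated wells divided by that of vehicle wells, and values are medians of duplicate plates.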", "values": [
      {"cell line": "NCI-H2085", "relative viability": 0.429},
      {"cell line": "HCC-15", "relative viability": 0.412},
      {"cell line": "NCI-H1793", "relative viability": 0.232},
      {"cell line": "PC-3 [JPC-3]", "relative viability": 0.682},
      {"cell line": "EKVX", "relative viability": 0.905},
      {"cell line": "LC-2-ad", "relative viability": 1.04},
      {"cell line": "NCI-H1944", "relative viability": 0.672},
      {"cell line": "NCI-H1975", "relative viability": 0.268},
      {"cell line": "SK-LU-1", "relative viability": 0.197},
      {"cell line": "ABC-1", "relative viability": 0.511},
      {"cell line": "NCI-H358", "relative viability": 0.219},
      {"cell line": "NCI-H661", "relative viability": 0.855},
      {"cell line": "RERF-LC-KJ", "relative viability": 1.26}
    ]},
    {"compound": "CN1CCN(CC1)C2=CC(=C(C=C2)NC3=NC(=C(S3)C(=O)C4=C(C=CC=C4Cl)Cl)N)OC [XMD14-99] + CCNC(=O)c1noc(-c2cc(C(C)C)c(O)cc2O)c1-c1ccc(CN2CCOCC2)cc1 [Luminespib] (partner 0.01 µM)", "test": "relative viability (nuclei count vs DMSO), 5 days (fraction); higher = more cells survive", "conditions": "first compound 0.8 µM", "outline": "as §1", "values": [
      {"cell line": "NCI-H1355", "relative viability": 0.799},
      {"cell line": "NCI-H322M", "relative viability": 1.06},
      {"cell line": "NCI-H1437", "relative viability": 0.992},
      {"cell line": "NCI-H1755", "relative viability": 0.396},
      {"cell line": "NCI-H2085", "relative viability": 0.41},
      {"cell line": "HCC-15", "relative viability": 0.258},
      {"cell line": "NCI-H1793", "relative viability": 0.184},
      {"cell line": "PC-3 [JPC-3]", "relative viability": 0.66},
      {"cell line": "EKVX", "relative viability": 0.814},
      {"cell line": "LC-2-ad", "relative viability": 0.984},
      {"cell line": "NCI-H1944", "relative viability": 0.754},
      {"cell line": "NCI-H1975", "relative viability": 0.238},
      {"cell line": "SK-LU-1", "relative viability": 0.201},
      {"cell line": "ABC-1", "relative viability": 0.7},
      {"cell line": "NCI-H358", "relative viability": 0.262},
      {"cell line": "NCI-H661", "relative viability": 0.778},
      {"cell line": "RERF-LC-KJ", "relative viability": 1.13}
    ]},
    {"compound": "CN1CCN(CC1)C2=CC(=C(C=C2)NC3=NC(=C(S3)C(=O)C4=C(C=CC=C4Cl)Cl)N)OC [XMD14-99] + CCNC(=O)c1noc(-c2cc(C(C)C)c(O)cc2O)c1-c1ccc(CN2CCOCC2)cc1 [Luminespib] (partner 0.01 µM)", "test": "relative viability (nuclei count vs DMSO), 5 days (fraction); higher = more cells survive", "conditions": "first compound 2.53 µM", "outline": "as §1", "values": [
      {"cell line": "NCI-H1355", "relative viability": 0.67},
      {"cell line": "NCI-H322M", "relative viability": 0.939},
      {"cell line": "NCI-H1437", "relative viability": 0.949},
      {"cell line": "NCI-H1755", "relative viability": 0.305},
      {"cell line": "NCI-H2085", "relative viability": 0.377},
      {"cell line": "HCC-15", "relative viability": 0.214},
      {"cell line": "NCI-H1793", "relative viability": 0.499},
      {"cell line": "PC-3 [JPC-3]", "relative viability": 0.564},
      {"cell line": "EKVX", "relative viability": 0.768},
      {"cell line": "LC-2-ad", "relative viability": 0.824},
      {"cell line": "NCI-H1944", "relative viability": 0.533},
      {"cell line": "NCI-H1975", "relative viability": 0.206},
      {"cell line": "SK-LU-1", "relative viability": 0.235},
      {"cell line": "ABC-1", "relative viability": 0.806},
      {"cell line": "NCI-H358", "relative viability": 0.323},
      {"cell line": "NCI-H661", "relative viability": 0.697},
      {"cell line": "RERF-LC-KJ", "relative viability": 1.05}
    ]},
    {"compound": "CN1CCN(CC1)C2=CC(=C(C=C2)NC3=NC(=C(S3)C(=O)C4=C(C=CC=C4Cl)Cl)N)OC [XMD14-99] + CCNC(=O)c1noc(-c2cc(C(C)C)c(O)cc2O)c1-c1ccc(CN2CCOCC2)cc1 [Luminespib] (partner 0.01 µM)", "test": "relative viability (nuclei count vs DMSO), 5 days (fraction); higher = more cells survive", "conditions": "first compound 8 µM", "outline": "as §1", "values": [
      {"cell line": "NCI-H1355", "relative viability": 0.617},
      {"cell line": "NCI-H322M", "relative viability": 0.863},
      {"cell line": "NCI-H1437", "relative viability": 0.862},
      {"cell line": "NCI-H1755", "relative viability": 0.369},
      {"cell line": "NCI-H2085", "relative viability": 0.368},
      {"cell line": "HCC-15", "relative viability": 0.256},
      {"cell line": "NCI-H1793", "relative viability": 0.25},
      {"cell line": "PC-3 [JPC-3]", "relative viability": 0.588},
      {"cell line": "EKVX", "relative viability": 0.802},
      {"cell line": "LC-2-ad", "relative viability": 0.582},
      {"cell line": "NCI-H1944", "relative viability": 0.575},
      {"cell line": "NCI-H1975", "relative viability": 0.209},
      {"cell line": "SK-LU-1", "relative viability": 0.184},
      {"cell line": "ABC-1", "relative viability": 0.382},
      {"cell line": "NCI-H358", "relative viability": 0.281},
      {"cell line": "NCI-H661", "relative viability": 0.55},
      {"cell line": "RERF-LC-KJ", "relative viability": 0.822}
    ]},
    {"compound": "N[C@@H]1CCCN(c2c(/C=C3\\SC(=O)NC3=O)cccc2-c2ccccc2)C1 [AZD1208] + Cc1cc(Nc2cc(N3CCN(C)CC3)nc(Sc3ccc(NC(=O)C4CC4)cc3)n2)n[nH]1 [Tozasertib] (partner 0.1 µM)", "test": "relative viability (nuclei count vs DMSO), 5 days (fraction); higher = more cells survive", "conditions": "first compound 0.08 µM", "outline": "as §1", "values": [
      {"cell line": "NCI-H1355", "relative viability": 0.539},
      {"cell line": "NCI-H322M", "relative viability": 0.429},
      {"cell line": "NCI-H1437", "relative viability": 0.429},
      {"cell line": "NCI-H1755", "relative viability": 0.525},
      {"cell line": "NCI-H2085", "relative viability": 0.811},
      {"cell line": "HCC-15", "relative viability": 0.362},
      {"cell line": "NCI-H1793", "relative viability": 0.302},
      {"cell line": "PC-3 [JPC-3]", "relative viability": 0.9}
    ]}
  ]
}
